Experimental data: US11053204B2, “Pyrimidinyloxy benzene derivatives as herbicides” (FMC Corporation, priority 2015, dated 2021)

Legend:
Format in all cases: in vivo
rice (Oryza sativa) = assay: Test B flooded paddy test, plant response rating; settings: 250 g ai/ha; Flood; scale of 0 to 100 where 0 is no effect and 100 is complete control; 13 to 15 days
In short: (§1)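 Test compounds are applied straight into paddy water held 3 cm above the soil surface, with that flood maintained for the whole test. After 13 to 15 days in the greenhouse, each species is scored visually relative to controls.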

[1] = tested on: ducksalad (Heteranthera limosa); assay: Test B flooded paddy test, plant response rating; settings: 250 g ai/ha; Flood; scale of 0 to 100 where 0 is no effect and 100 is complete control; 13 to 15 days
In short: as §1

[2] = tested on: barnyardgrass (Echinochloa crus-galli); assay: Test B flooded paddy test, plant response rating; settings: 250 g ai/ha; Flood; scale of 0 to 100 where 0 is no effect and 100 is complete control; 13 to 15 days
In short: as §1

[3] = tested on: sedge, umbrella (small-flower umbrella sedge, Cyperus difformis); assay: Test B flooded paddy test, plant response rating; settings: 250 g ai/ha; Flood; scale of 0 to 100 where 0 is no effect and 100 is complete control; 13 to 15 days
In short: as §1

[4] = tested on: ragweed (common ragweed, Ambrosia elatior); assay: Test A preemergence, visual injury rating
In short: (§2)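 Compounds in non-phytotoxic solvent with surfactant applied as soil spray preemergence, or postemergence to plants 2-10 cm at one- to two-leaf stage, in loam/sand. After approximately 10 days in greenhouse, injury rated visually versus untreated controls, 0 (no effect) to 100 (complete control).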

[5] = tested on: Italian ryegrass (Lolium multiflorum); assay: Test A preemergence, visual injury rating
In short: as §2

[6] = tested on: giant foxtail (Setaria faberii); assay: Test A preemergence, visual injury rating
In short: as §2

[7] = tested on: barnyardgrass (Echinochloa crus-galli); assay: Test A preemergence, visual injury rating
In short: as §2

[8] = tested on: pigweed (Amaranthus retroflexus); assay: Test A preemergence, visual injury rating
In short: as §2

kochia (Kochia scoparia) [9] = assay: Test A preemergence, visual injury rating
In short: as §2

[10] = tested on: ragweed (common ragweed, Ambrosia elatior); assay: Test A postemergence, visual injury rating
In short: as §2

[11] = tested on: wheat (Triticum aestivum); assay: Test A postemergence, visual injury rating
In short: as §2

[12] = tested on: blackgrass (Alopecurus myosuroides); assay: Test A postemergence, visual injury rating
In short: as §2

[13] = tested on: Italian ryegrass (Lolium multiflorum); assay: Test A postemergence, visual injury rating
In short: as §2

[14] = tested on: giant foxtail (Setaria faberii); assay: Test A postemergence, visual injury rating
In short: as §2

corn (Zea mays) = assay: Test A postemergence, visual injury rating
In short: as §2

[15] = tested on: barnyardgrass (Echinochloa crus-galli); assay: Test A postemergence, visual injury rating; settings: 0 to 100 scale, 0 is no effect, 100 is complete control, approximately 10 days
In short: as §2

[16] = tested on: pigweed (Amaranthus retroflexus); assay: Test A postemergence, visual injury rating
In short: as §2

[17] = tested on: galium (catchweed bedstraw, Galium aparine); assay: Test A postemergence, visual injury rating
In short: as §2

kochia (Kochia scoparia) [18] = assay: Test A postemergence, visual injury rating
In short: as §2

[19] = 31 g ai/ha, 0 to 100 scale, 0 no effect, 100 complete control
[20] = 125 g ai/ha, 0 to 100 scale (0 no effect, 100 complete control)
[21] = 31 g ai/ha, 0 to 100 scale, 0 is no effect, 100 is complete control, approximately 10 days
[22] = 125 g ai/ha, 0 to 100 scale, 0 is no effect, 100 is complete control, approximately 10 days
[23] = 31 g ai/ha, 0 to 100 scale (0 no effect, 100 complete control)

Row | Compound | Plant response rating, Rice (rice (Oryza sativa)) | Plant response rating, Ducksalad [1] | Plant response rating, Barnyardgrass [2] | Plant response rating, Sedge, Umbrella [3] | Plant response rating, Ragweed [4, 19] | Plant response rating, Ragweed [4, 20] | Plant response rating, Ryegrass, Italian [5, 19] | Plant response rating, Ryegrass, Italian [5, 20] | Plant response rating, Foxtail, Giant [6, 19] | Plant response rating, Foxtail, Giant [6, 20] | Plant response rating, Barnyardgrass [7, 19] | Plant response rating, Pigweed [8, 19] | Plant response rating, Pigweed [8, 20] | Plant response rating, Kochia (kochia (Kochia scoparia) [9]; [19]) | Plant response rating, Kochia (kochia (Kochia scoparia) [9]; [20]) | Ragweed plant response rating [10, 22] | Wheat plant response rating [11, 22] | Blackgrass plant response rating [12, 22] | Ryegrass, Italian plant response rating [13, 22] | Foxtail, Giant plant response rating [14, 22] | also measured
1 | CCCCCOC(=O)c1c(Br)cccc1Oc1ncc(Cl)cn1 [Compound 101] | 0 | 0 | 0 | 0 | 0 | 0 | 0 | 0 | 0 | 40 | 0 | 0 | 0 | 0 | 0 | 0 | 0 | 0 | 10 | 20 | Barnyardgrass plant response rating [7, 20]: 10; Ragweed plant response rating [10, 21]: 0; Wheat plant response rating [11, 21]: 0; Blackgrass plant response rating [12, 21]: 0; Ryegrass, Italian plant response rating [13, 21]: 0; Foxtail, Giant plant response rating [14, 21]: 0; Corn plant response rating (corn (Zea mays); [21]): 0; Corn plant response rating (corn (Zea mays); [22]): 0; Barnyardgrass plant response rating ([15]; 31 g ai/ha): 10; Barnyardgrass plant response rating ([15]; 125 g ai/ha): 20; Pigweed plant response rating [16, 21]: 20; Pigweed plant response rating [16, 22]: 60; Galium plant response rating [17, 21]: 10; Galium plant response rating [17, 22]: 40; Kochia plant response rating (kochia (Kochia scoparia) [18]; [21]): 0; Kochia plant response rating (kochia (Kochia scoparia) [18]; [22]): 20
2 | CCCCC(C#N)c1ccccc1Oc1ncc(Cl)cn1 (stereo not drawn) [Compound 129] | 40 | 90 | 45 | 80 | 0 | 0 | 20 | 60 | 100 | 100 | 70 | 90 | 100 | 30 | 100 | 0 | 10 | 80 | 60 | 100 | Plant response rating, Barnyardgrass [7, 20]: 100; Ragweed plant response rating [10, 23]: 0; Wheat plant response rating [11, 23]: 0; Blackgrass plant response rating [12, 23]: 20; Ryegrass, Italian plant response rating [13, 23]: 0; Foxtail, Giant plant response rating [14, 23]: 20; Corn plant response rating (corn (Zea mays); [23]): 20; Corn plant response rating (corn (Zea mays); [22]): 20; Barnyardgrass plant response rating ([15]; 31 g ai/ha): 20; Barnyardgrass plant response rating ([15]; 125 g ai/ha): 100; Pigweed plant response rating [16, 23]: 20; Pigweed plant response rating [16, 22]: 70; Galium plant response rating [17, 23]: 30; Galium plant response rating [17, 22]: 90; Kochia plant response rating (kochia (Kochia scoparia) [18]; [23]): 40; Kochia plant response rating (kochia (Kochia scoparia) [18]; [22]): 100
